Data published in patent US9387204B2, “Fused bicyclic imidazoles” (BAYER INTELLECTUAL PROPERTY GmbH, priority 2007, dated 2016).

What follows are compounds tested on A549 cells (assay: Cellular proliferation/cytotoxicity assay (Alamar Blue), A549 cells). Conditions: Homo sapiens, A549, 72 h, read-out: Anti-proliferative/Cytotoxic activity (A549 cells).

| SMILES | IC50 [µM] |
| --- | --- |
| O=C(O)c1ccn2c(-c3ccccc3)c(-c3ccc(CN4CCC(c5nnc(-c6ccccn6)[nH]5)CC4)cc3)nc2c1 [Example 125, 3-phenyl-2-[4-({4-[5-(pyridin-2-yl)-4H-1,2,4-triazol-3-yl]piperidin-1-yl}methyl)phenyl]imidazo[1,2-a]pyridine-7-carboxylic acid] | > 10 |
| Ic1cnc2nc(-c3ccc(CN4CCC(c5n[nH]c(-c6ccccn6)n5)CC4)cc3)c(-c3ccccc3)n2c1 [Example 23, 6-iodo-3-phenyl-2-(4-{[4-(5-pyridin-2-yl-1,2,4-triazol-3-yl)piperidin-1-yl]methyl}phenyl)imidazo[1,2-a]pyrimidine] | > 10 |
| Clc1ccn2c(-c3ccccc3)c(-c3ccc(CN4CCC(c5nnc(-c6cccs6)[nH]5)CC4)cc3)nc2c1 [Example 103, 7-chloro-3-phenyl-2-[4-({4-[5-(2-thienyl)-4H-1,2,4-triazol-3-yl]piperidin-1-yl}methyl)phenyl]imidazo[1,2-a]pyridine] | < 10 |
| N#Cc1ccn2c(-c3ccccc3)c(-c3ccc(CN4CCC(c5n[nH]c(-c6ccccn6)n5)CC4)cc3)nc2c1 [Example 29, 3-phenyl-2-(4-{[4-(5-pyridin-2-yl-1,2,4-triazol-3-yl)piperidin-1-yl]methyl}phenyl)imidazo[1,2-a]pyridine-7-carbonitrile] | > 10 |
| c1ccc(-c2c(-c3ccc(CN4CCC(c5n[nH]c(-c6ccccn6)n5)CC4)cc3)nc3ccccn23)cc1 [Example 2, 3-phenyl-2-(4-{[4-(5-pyridin-2-yl-1H-1,2,4-triazol-3-yl)piperidin-1-yl]methyl}phenyl)imidazo[1,2-a]pyridine] | < 10 |
| Cc1cccn2c(-c3ccccc3)c(-c3ccc(CN4CCC(c5n[nH]c(-c6ccccn6)n5)CC4)cc3)nc12 [Example 8, 8-methyl-3-phenyl-2-(4-{[4-(5-pyridin-2-yl-1,2,4-triazol-3-yl)piperidin-1-yl]methyl}phenyl)imidazo[1,2-a]pyridine] | < 10 |
| Fc1ccc2nc(-c3ccc(CN4CCC(c5n[nH]c(-c6ccccn6)n5)CC4)cc3)c(-c3ccccc3)n2c1 [Example 22, 6-fluoro-3-phenyl-2-(4-{[4-(5-pyridin-2-yl-1,2,4-triazol-3-yl)piperidin-1-yl]methyl}phenyl)imidazo[1,2-a]pyridine] | > 10 |
| c1ccc(-c2nc(C3CCN(Cc4ccc(-c5nc6ncccn6c5-c5nccs5)cc4)CC3)n[nH]2)nc1 [Example 39, 2-(4-{[4-(5-pyridin-2-yl-1,2,4-triazol-3-yl)piperidin-1-yl]methyl}phenyl)-3-(1,3-thiazol-2-yl)imidazo[1,2-a]pyrimidine] | > 10 |

Same assay, conditions: read-out: Anti-proliferative/Cytotoxic activity (A549 cells); A549 cells, 72 h, Alamar Blue (Resazurin)

| SMILES | IC50 [µM] |
| --- | --- |
| Cc1ccc2nc(-c3ccc(CN4CCC(c5nnc(-c6ncccn6)[nH]5)CC4)cc3)c(-c3ccccc3)n2n1 [Example 83, ′6-methyl-3-phenyl-2-(4-{[4-(5-pyrimidin-2-yl-4H-1,2,4-triazol-3-yl)piperidin-1-yl]methyl}phenyl)imidazo[1,2-b]pyridazine] | > 10 |
| c1ccc(-c2c(-c3ccc(CN4CCC(c5nnc(-c6cccs6)[nH]5)CC4)cc3)nc3scnn23)cc1 [Example 101, ′5-phenyl-6-[4-({4-[5-(2-thienyl)-4H-1,2,4-triazol-3-yl]piperidin-1-yl}methyl)phenyl]imidazo[2,1-b][1,3,4]thiadiazole] | < 10 |
| N#Cc1cccn2c(-c3ccccc3)c(-c3ccc(CN4CCC(c5nnc(-c6ccco6)[nH]5)CC4)cc3)nc12 [Example 90, ′2-[4-({4-[5-(2-furyl)-4H-1,2,4-triazol-3-yl]piperidin-1-yl}methyl)phenyl]-3-phenylimidazo[1,2-a]pyridine-8-carbonitrile] | > 10 |
| Cc1ccc(-c2nnc(C3CCN(Cc4ccc(-c5nc6scnn6c5-c5ccccc5)cc4)CC3)[nH]2)nc1 [Example 74, ′6-[4-({4-[5-(5-methylpyridin-2-yl)-4H-1,2,4-triazol-3-yl]piperidin-1-yl}methyl)phenyl]-5-phenylimidazo[2,1-b][1,3,4]thiadiazole] | < 10 |
